Experimental data: US9309243B2, “Imidazopyridine derivatives as modulators of TNF activity” (UCB Biopharma SPRL, priority 2012, dated 2016)

- melting point: 143 to 144 °C
Structure (SMILES): Cc1nc2cc(F)c(-c3cnc(C4(O)COC4)nc3)cn2c1Cc1ccccc1OC(F)F [Example 322, 3-[5-(3-{[2-(Difluoromethoxy)phenyl]methyl}-7-fluoro-2-methylimidazo[1,2-a]pyridin-6-yl)pyrimidin-2-yl]oxetan-3-ol]
